# Earlier results in patent publication US6656448B1, “Matrix metalloproteinase inhibitors” (Bristol-Myers Squibb Pharma Company, priority 2000, dated 2003).
# Tested on: MMP-2 and MMP-9
smiles,measurement,value
O=C(NO)C1(CS(=O)(=O)c2ccc(Oc3ccc(Cl)cc3)cc2)CCOCC1 [Example 13],selectivity for MMP-2 and MMP-9,selectivity for MMP-2 and MMP-9
